ChEMBL document CHEMBL1201862, “PubChem BioAssay data set” (2004)
Activity calls are given as the source filed them. For most assays here, no stated cut-off is given here; in the data, actives have a measured EC50 and inactives only a lower limit.

Columns and labels:
[1] = biological target: T1, Zinc finger protein mex-5 (Caenorhabditis elegans, UniProt Q9XUB2); assay: MEX-5/TCR-2 RNA interaction inhibitors, dose response, biochemical, C. elegans, fluorescence polarization (AID 1960)
T1 sequence (Q9XUB2 whole entry): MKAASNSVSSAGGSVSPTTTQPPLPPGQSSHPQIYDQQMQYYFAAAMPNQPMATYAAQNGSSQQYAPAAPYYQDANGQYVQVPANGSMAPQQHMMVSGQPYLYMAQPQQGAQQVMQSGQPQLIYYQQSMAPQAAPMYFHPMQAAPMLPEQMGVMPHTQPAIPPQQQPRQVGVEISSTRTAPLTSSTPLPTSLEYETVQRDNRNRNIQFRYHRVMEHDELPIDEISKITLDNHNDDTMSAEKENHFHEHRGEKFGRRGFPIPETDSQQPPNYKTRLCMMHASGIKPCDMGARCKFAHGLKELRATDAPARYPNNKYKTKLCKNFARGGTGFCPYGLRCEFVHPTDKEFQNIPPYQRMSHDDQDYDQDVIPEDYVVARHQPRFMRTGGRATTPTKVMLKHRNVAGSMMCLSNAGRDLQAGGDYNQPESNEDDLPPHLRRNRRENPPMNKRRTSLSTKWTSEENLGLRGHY

[2] = biological target: T2, RNA-binding protein pos-1 (Caenorhabditis elegans, UniProt G5EF15); assay: inhibitors of POS-1/mex-3 RNA binding, dose response, biochemical, fluorescence polarization (AID 1964);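 further: purified POS-1 fused to maltose binding protein made in E. coli; potency of compounds blocking POS-1 binding to fluorescent RNA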
T2 sequence (G5EF15 whole entry): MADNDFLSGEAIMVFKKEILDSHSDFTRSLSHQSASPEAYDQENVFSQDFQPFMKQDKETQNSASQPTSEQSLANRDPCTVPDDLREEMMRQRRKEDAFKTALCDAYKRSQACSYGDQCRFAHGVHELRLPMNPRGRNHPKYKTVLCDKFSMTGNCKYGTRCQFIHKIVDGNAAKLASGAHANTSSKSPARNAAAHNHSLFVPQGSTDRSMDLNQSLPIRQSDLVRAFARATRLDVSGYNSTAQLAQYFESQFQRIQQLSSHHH

[3] = biological target: T3, Rac GTPase-activating protein 1 (Homo sapiens, UniProt Q9H0H5); assay: MgcRacGAP GTPase-activating activity inhibitors, confirmation, biochemical, ADP Hunter fluorescence, primary and confirmatory (AID 624330); format: functional
T3 sequence (Q9H0H5 whole entry): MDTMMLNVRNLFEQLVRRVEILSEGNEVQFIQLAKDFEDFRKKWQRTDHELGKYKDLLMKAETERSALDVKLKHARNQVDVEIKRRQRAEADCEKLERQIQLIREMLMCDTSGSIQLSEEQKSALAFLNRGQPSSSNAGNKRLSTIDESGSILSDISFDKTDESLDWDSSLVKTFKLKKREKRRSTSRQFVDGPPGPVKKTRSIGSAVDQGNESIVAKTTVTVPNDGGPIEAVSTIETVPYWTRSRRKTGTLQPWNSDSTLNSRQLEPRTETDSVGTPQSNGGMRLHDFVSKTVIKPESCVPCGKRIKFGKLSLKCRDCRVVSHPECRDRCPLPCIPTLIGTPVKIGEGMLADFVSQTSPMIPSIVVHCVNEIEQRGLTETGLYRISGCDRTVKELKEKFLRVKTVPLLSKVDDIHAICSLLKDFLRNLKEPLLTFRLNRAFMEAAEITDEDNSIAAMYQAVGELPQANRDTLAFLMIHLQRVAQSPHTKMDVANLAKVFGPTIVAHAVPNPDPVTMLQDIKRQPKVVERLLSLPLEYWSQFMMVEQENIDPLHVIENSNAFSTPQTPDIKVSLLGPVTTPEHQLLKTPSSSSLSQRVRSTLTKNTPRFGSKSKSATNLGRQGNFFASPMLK

[4] = biological target: T4, Corticotropin-releasing factor receptor 2/Corticotropin-releasing factor-binding protein (Homo sapiens, UniProt P24387+Q13324); assay: Dose Response confirmation of uHTS hits for small molecule antagonists of the CRF-binding protein and CRF-R2 receptor complex.; format: functional; conditions: read-out: IC50_Mean
T4 sequence (Q13324 whole entry): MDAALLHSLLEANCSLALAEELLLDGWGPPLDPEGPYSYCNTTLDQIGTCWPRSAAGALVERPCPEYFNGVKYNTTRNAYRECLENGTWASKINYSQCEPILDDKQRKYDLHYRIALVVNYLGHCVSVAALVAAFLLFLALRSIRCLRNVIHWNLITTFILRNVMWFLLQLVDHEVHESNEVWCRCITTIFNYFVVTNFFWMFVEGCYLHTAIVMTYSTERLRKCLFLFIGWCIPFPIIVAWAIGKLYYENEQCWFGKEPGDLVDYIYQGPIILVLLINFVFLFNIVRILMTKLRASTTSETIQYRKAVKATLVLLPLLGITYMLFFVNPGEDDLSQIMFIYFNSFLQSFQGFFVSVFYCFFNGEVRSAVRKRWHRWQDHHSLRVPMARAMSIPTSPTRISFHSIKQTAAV
T4 sequence (P24387 whole entry): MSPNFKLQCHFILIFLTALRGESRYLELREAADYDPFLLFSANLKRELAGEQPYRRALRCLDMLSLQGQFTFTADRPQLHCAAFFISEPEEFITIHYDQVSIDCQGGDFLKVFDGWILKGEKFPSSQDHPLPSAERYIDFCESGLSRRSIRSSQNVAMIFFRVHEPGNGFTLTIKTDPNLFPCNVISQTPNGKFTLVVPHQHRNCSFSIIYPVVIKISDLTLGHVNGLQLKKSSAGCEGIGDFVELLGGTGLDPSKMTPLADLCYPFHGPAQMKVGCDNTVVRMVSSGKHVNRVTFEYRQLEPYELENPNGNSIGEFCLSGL

[5] = biological target: T4, Corticotropin-releasing factor receptor 2/Corticotropin-releasing factor-binding protein; assay: activators of CRF receptor 2 with binding protein – uHTS hits, confirmation (AID 602473); format: functional; conditions: read-out: EC50_Mean
INS1 = assay: beta cell apoptosis inhibitors, cytokine rescue, dose response, luminescence, retest (AID 449756); format: functional, cell-based; conditions: Rattus norvegicus, INS1;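 further: cell death triggered by IL-1 beta plus TNF-alpha plus IFN-gamma mixture; protective hits raise ATP signal compared with cytokine alone wells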
[6] = inhibitors of intracellular T. cruzi replication, confirmation, NIH3T3 host cells, beta-gal luminescence (AID 2044); format: functional, cell-based;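 further: intracellular parasites grown in NIH/3T3 mouse fibroblasts as host cells; luminescent beta-galactosidase reporter signal from transgenic T. cruzi replicating inside host cells; inhibitors lower the luminescence signal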
[7] = cytotoxicity toward NIH3T3 fibroblasts, dose response, counter-screen, cell-based, ATP luminescence, mouse fibroblasts (AID 2010); format: functional;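 further: cells exposed to compound for about 90 hours before reading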
[8] = Luminescence Cell-Based Dose Response HTS to Identify Activators of Luciferase Translation or Activity in H4 […] Cells. [Related pubchem assays: 1829 (Project Summary), 1814 (Primary HTS)]; format: functional
[9] = system: Streptococcus sp. 'group A'; assay: growth inhibition of control SK(-) GAS strain, dose response, counter-screen for streptokinase expression inhibitor project, luminescence, kanamycin, BacTiterGlo, confirmation (AID 1900); format: functional, organism-based
Streptococcus = assay: Group A Streptococcus viability loss, dose response, counter-screen for streptokinase expression inhibitor project, luminescence, BacTiterGlo (AID 1915); format: functional, organism-based;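 further: potency for reduction of bacterial viability or growth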

## CCCC(C)NC(=O)c1ccc(C2SCC(=O)N2Cc2ccco2)cc1 (configuration not stated)
[1]
  EC50: > 300 µM (not active)
[2]
  EC50: > 300 µM (not active)

## C#CCOc1ccccc1CNC1CCN(Cc2ccccc2)CC1
[3]
  IC50: 64.9 µM (active)

## COc1cccc(F)c1C(=O)NC(=O)Nc1ccc2nc(C)oc2c1
[1]
  EC50: 17.4 µM (active)
[2]
  EC50: 17.8 µM (active)

## CC(C)c1ccc(CNc2ccc(N3CCOCC3)cc2)cc1
[3]
  IC50: 12.4 µM (active)

## COc1ccccc1-c1cc(C(=O)NN)[nH]n1
[4]
  IC50: > 47.1 µM (inactive)
[5]
  EC50: > 53 µM (inactive)

## Clc1cc(-c2ccc(/C=N/n3cnnc3)o2)ccc1Br
[1]
  EC50: 81.6 µM (active)
[2]
  EC50: 59.4 µM (active)

## Cc1nn(-c2ccccc2)c(C)c1NC(=O)COC(=O)c1ccccc1OC(F)F
[4]
  IC50: > 47.1 µM (inactive)
[5]
  EC50: > 53 µM (inactive)

## COc1cccc2c(=O)n(CC(=O)N3CCc4ccccc43)ccc12
[5]
  EC50: > 53 µM (inactive)

## CCN(C(=O)COC(=O)Cc1cccc2ccccc12)C1CCS(=O)(=O)C1 (configuration not stated)
[4]
  IC50: > 47.1 µM (inactive)
[5]
  EC50: > 53 µM (inactive)

## Cc1ccccc1[N+](=O)[O-]
[4]
  IC50: > 47.1 µM (inactive)
[5]
  EC50: > 53 µM (inactive)

## N=C(Cc1ccc([N+](=O)[O-])cc1)NOC(=O)c1ccc(Br)cc1
[4]
  IC50: 9.38 µM (active)
[5]
  EC50: > 53 µM (inactive)

## CCn1c(S)nc2c(=O)n(C)c(=O)n(C)c21
[3]
  IC50: 21.1 µM (active)

## COc1ccc(CNC(=O)CN2CCN(c3ccc(F)cc3)CC2)cc1
[4]
  IC50: > 47.1 µM (inactive)
[5]
  EC50: > 53 µM (inactive)

## Oc1ccc(/C=N/NC2=NCCCCC2)c(O)c1
[3]
  IC50: 43.2 µM (active)

## Nc1nc(CN2CCc3ccccc3C2)nc(Nc2ccccc2)n1
[4]
  IC50: > 47.1 µM (inactive)
[5]
  EC50: > 53 µM (inactive)

## COc1ccc(C2c3ccc(O)cc3Oc3ncn(Cc4ccco4)c(=N)c32)cc1OC (configuration not stated)
[1]
  EC50: > 300 µM (not active)
[2]
  EC50: > 300 µM (not active)

## CC(C)OCCCn1/c(=N/C(=O)c2cccs2)c(C#N)cc2c(=O)n3ccccc3nc21
[1]
  EC50: > 300 µM (not active)
[2]
  EC50: > 300 µM (not active)

## COc1ccc(N2CCN(c3ccc(C(N)=O)cc3[N+](=O)[O-])CC2)cc1
[3]
  IC50: 158 µM (active)

## COc1ccc(NC(=O)C(=O)NCC(=O)Nc2cccc(C(F)(F)F)c2)cc1
[4]
  IC50: > 47.1 µM (inactive)
[5]
  EC50: > 53 µM (inactive)

## COc1ccc(-c2c[n+](-c3ccc(Cl)cc3)c3n2CCCCC3)cc1
INS1
  AC50: 2.16 µM (active)
[6]
  EC50: 0.781 µM (active)
[7]
  EC50: > 60 µM (not active)

## COc1cc(/C=C/C(=O)OCC(=O)NCCC2=CCCCC2)ccc1O
[3]
  IC50: 49 µM (active)

## CCOc1ccc(N2C(=O)NC(=O)/C(=C\Nc3ccc(N4CCOCC4)cc3)C2=O)cc1
[1]
  EC50: 60.4 µM (inconclusive)
[2]
  EC50: 17.6 µM (inconclusive)

## COc1ccc(Nc2ncnc3c2oc2ccccc23)cc1
[8]
  EC50: 7.34 µM (active)

## COc1cc(C(=O)NCc2ccccc2Cl)ccc1OCC(=O)N1CCOCC1
[4]
  IC50: > 47.1 µM (inactive)
[5]
  EC50: > 53 µM (inactive)

## CCOC(=O)c1cc(CC)sc1NC=C1C(=O)NC(=S)NC1=O
[1]
  EC50: 15 µM (active)
[2]
  EC50: > 300 µM (not active)

## CCOc1ccccc1Nc1ccnc2cc(Cl)ccc12
[4]
  IC50: > 47.1 µM (inactive)
[5]
  EC50: > 53 µM (inactive)

## COc1ccc(C2=NOC(CN=C(N)S)C2)cc1 (configuration not stated)
[9]
  EC50: 3.77 µM (active)
Streptococcus
  EC50: 10.9 µM (active)

## COc1cccc(C(=O)NNc2nc(C)cc(C)n2)c1
[1]
  EC50: 127 µM (active)
[2]
  EC50: > 300 µM (not active)

## O=C(c1cccc([N+](=O)[O-])c1)c1ccc2c(c1)OCCOCCOCCO2
[4]
  IC50: > 47.1 µM (inactive)
[5]
  EC50: > 53 µM (inactive)

## Cc1ccc(NC(=O)CCS(=O)(=O)c2cc3c(cc2Cl)NC(=O)CO3)cc1
[1]
  EC50: > 300 µM (not active)
[2]
  EC50: > 300 µM (not active)

## O=C(CCn1c2c(c3ccccc31)CCCC2)NNC(=O)c1ccccc1C(=O)O
[5]
  EC50: 7.66 µM (active)

## CC1=CC(C)(C)N2C(=O)C3(C(C#N)=C(N)OC4=C3C(=O)CCC4)c3c(C)c(C)cc1c32 (configuration not stated)
[1]
  EC50: > 300 µM (not active)
[2]
  EC50: > 300 µM (not active)

## CCC(C)n1c(=N)c(C#N)cc2c(=O)n3cccc(C)c3nc21 (configuration not stated)
[1]
  EC50: 21.5 µM (inconclusive)
[2]
  EC50: 296 µM (active)

## CCOC(=O)c1[nH]c2ccc(OC)cc2c1NC(=O)c1ccccc1C(=O)O
[3]
  IC50: 109 µM (active)

## COc1ccc(Cl)c(Cn2c(NCc3ccco3)nc3c2c(=O)n(C)c(=O)n3C)c1
INS1
  AC50: 3.27 µM (active)

## O=C(CN1CCN(c2ccccn2)CC1)Nc1ccc(F)cc1
[3]
  IC50: 78.9 µM (active)

## CC1CC(C)CN(CC(=O)NC(c2ccccc2)c2ccccc2)C1 (configuration not stated)
[3]
  IC50: 231 µM (active)

## Oc1ccc(-c2csc(Nc3ncccn3)n2)cc1
[3]
  IC50: 21.4 µM (active)

## O=C(CN1CCOCC1)N/N=C/c1c(O)ccc2ccccc12
INS1
  AC50: 4.87 µM (active)

## Cc1ccc(/C(O)=C/c2nc3cc(C)ccc3oc2=O)cc1
[1]
  EC50: 1.64 µM (inconclusive)
[2]
  EC50: 7.64 µM (inconclusive)

## Cc1ccc(-c2cnc(NC(=O)CCC(=O)N(C)Cc3ccccc3)n2C)cc1
INS1
  AC50: 21.3 µM (active)
